Reference: patent US20120165304A1, “6,7,8,9-Tetrahydro-5H-1,4,7,10a-tetraaza-cyclohept[f]indene derivatives, pharmaceutical compositions containing these compounds, their use and processes for preparing them” (BOEHRINGER INGELHEIM INTERNATIONAL GMBH, priority 2008, published 2012)

Biological target: human 5-HT2C receptor (Homo sapiens, UniProt P28335, I156V/I160V/N158S)
Experiment: cell-based

Sequence of human 5-HT2C receptor (P28335 33-458 I156V/N158S/I160V limits assumed): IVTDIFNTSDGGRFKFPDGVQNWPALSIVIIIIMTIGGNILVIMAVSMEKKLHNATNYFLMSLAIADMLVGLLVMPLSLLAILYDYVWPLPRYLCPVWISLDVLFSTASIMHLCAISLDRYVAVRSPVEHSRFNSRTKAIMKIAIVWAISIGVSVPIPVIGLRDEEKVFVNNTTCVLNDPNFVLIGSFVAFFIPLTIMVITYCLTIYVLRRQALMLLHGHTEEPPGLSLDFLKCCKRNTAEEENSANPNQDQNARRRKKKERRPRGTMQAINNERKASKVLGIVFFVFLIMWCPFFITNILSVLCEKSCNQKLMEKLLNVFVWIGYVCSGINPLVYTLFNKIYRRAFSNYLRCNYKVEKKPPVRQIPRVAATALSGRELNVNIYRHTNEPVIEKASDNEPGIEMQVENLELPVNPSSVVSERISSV

In the case of CCN1CCN(C(=O)C2CN(c3c4c(nc5ccnn35)CCNCC4)C2)CC1 [Example 37.1], the EC50 is reported as 3 nM.
With Fc1ccc(OC2CN(c3c4c(nc5ccnn35)CCNCC4)C2)cc1F [Example 35.55] the EC50 was 115 nM.
In the case of CN(Cc1cccc(Cl)c1)C(=O)C1CN(c2c3c(nc4ccnn24)CCNCC3)C1 [Example 31.39], the EC50 is reported as 44 nM.
COCC1CN(c2c3c(nc4ccnn24)CCNCC3)C1 [Example 16, 10-(3-Methoxymethyl-azetidin-1-yl)-6,7,8,9-tetrahydro-5H-1,4,7,10a-tetraaza-cyclohepta[f]indene] showed an EC50 of 211 nM.
CC1CCCN1c1c2c(nc3ccnn13)CCNCC2 (stereo not shown) [Example 1.13] was tested, and the EC50 was 2300 nM.
With CC1CNCCc2c1nc1ccnn1c2N1CCCCC1 (stereo not shown) [Example 3, 5-Methyl-10-piperidin-1-yl-6,7,8,9-tetrahydro-5H-1,4,7,10a-tetraaza-cyclohepta[f]indene] the EC50 was 1810 nM.
CC(C)(C)CCNC(=O)C1CN(c2c3c(nc4ccnn24)CCNCC3)C1 [Example 37.83] showed an EC50 of 51 nM.
For Cn1c(=O)ccc2c(OC3CN(c4c5c(nc6ccnn46)CCNCC5)C3)cccc21 [Example 35.1], the EC50 was 41 nM.
In the case of CC1(C)CC1CNC(=O)C1CN(c2c3c(nc4ccnn24)CCNCC3)C1 (stereo not shown) [Example 37.110], the EC50 is reported as 255 nM.
For CN1CC(NC(=O)C2CN(c3c4c(nc5ccnn35)CCNCC4)C2)C1 [Example 37.64], the EC50 was 4 nM.
For CN1CCc2nc3ccnn3c(N3CC(C(=O)N4CCN(CC5CC5)CC4)C3)c2CC1 [Example 36.18], the EC50 was 77 nM.
COc1cc(Cl)ccc1OCC1CN(c2c3c(nc4ccnn24)CCNCC3)C1 [Example 15.26] was tested, and the EC50 was 163 nM.
Compound c1csc(COC2CN(c3c4c(nc5ccnn35)CCNCC4)C2)n1 [Example 20.14] has an EC50 of 23 nM.
For c1cnn(CC2CN(c3c4c(nc5ccnn35)CCNCC4)C2)c1 [Example 17, 10-(3-Pyrazol-1-ylmethyl-azetidin-1-yl)-6,7,8,9-tetrahydro-5H-1,4,7,10a-tetraaza-cyclohepta[f]indene], the EC50 was 15 nM.
In the case of CC(C)(C)N1CCC2(CCN(C(=O)C3CN(c4c5c(nc6ccnn46)CCNCC5)C3)CC2)C1=O [Example 31.150], the EC50 is reported as 240 nM.
C[C@@H]1CN(C(=O)C2CN(c3c4c(nc5ccnn35)CCN(C)CC4)C2)C[C@H](C)O1 [Example 36.21] gave an EC50 of 161 nM.
With O=C(C1CN(c2c3c(nc4ccnn24)CCNCC3)C1)N1CC[C@H]2CCCC[C@@H]2C1 [Example 31.130] the EC50 was 57 nM.
Work on Cc1ccc2c(c1)N(C(=O)C1CN(c3c4c(nc5ccnn35)CCNCC4)C1)CC2 [Example 31.176] yielded an EC50 of 95 nM.
In the case of FC(F)(F)c1ccc(OC2CN(c3c4c(nc5ccnn35)CCNCC4)C2)nc1 [Example 20.8], the EC50 is reported as 939 nM.
For CC(C)CC(C)NC(=O)C1CN(c2c3c(nc4ccnn24)CCNCC3)C1 (stereo not shown) [Example 37.99], the EC50 was 92 nM.
CCc1ccc(CN(C)C(=O)C2CN(c3c4c(nc5ccnn35)CCNCC4)C2)cc1 [Example 31.170] was tested, and the EC50 was 64 nM.
O=C(C1CCCCC1)N1CCN(C(=O)C2CN(c3c4c(nc5ccnn35)CCNCC4)C2)CC1 [Example 37.101] was tested, and the EC50 was 70 nM.
O=C(C1CN(c2c3c(nc4ccnn24)CCNCC3)C1)N1CCc2c(F)cccc2C1 [Example 31.204] showed an EC50 of 33 nM.
Fc1c(Cl)cccc1OCC1CN(c2c3c(nc4ccnn24)CCNCC3)C1 [Example 15.25] gave an EC50 of 212 nM.
Cc1cccc2c1N(C(=O)C1CN(c3c4c(nc5ccnn35)CCNCC4)C1)CC2 [Example 31.174] was tested, and the EC50 was 116 nM.
Work on CN1CCc2nc3ccnn3c(N3CC(C(=O)N4CCC(C#N)C4)C3)c2CC1 (stereo not shown) [Example 36.44] yielded an EC50 of 214 nM.
Work on CN(Cc1ccc(C(C)(C)C)cc1)C(=O)C1CN(c2c3c(nc4ccnn24)CCNCC3)C1 [Example 31.162] yielded an EC50 of 187 nM.
O=C(C1CN(c2c3c(nc4ccnn24)CCNCC3)C1)N1CC[C@H](Oc2cccc(Cl)c2)C1 [Example 31.213] showed an EC50 of 103 nM.
For O=C(C1CN(c2c3c(nc4ccnn24)CCNCC3)C1)N1CCC(c2ccccc2)CC1 [Example 31.63], the EC50 was 31 nM.
With CN(C(=O)C1CN(c2c3c(nc4ccnn24)CCNCC3)C1)C1CCCCC1 [Example 31.179] the EC50 was 1690 nM.
O=C(C1CN(c2c3c(nc4ccnn24)CCNCC3)C1)N1CCCC(c2ccccc2)(c2ccccc2)C1 [Example 31.221] gave an EC50 of 625 nM.
For CC(C)c1ccc(CN(C)C(=O)C2CN(c3c4c(nc5ccnn35)CCNCC4)C2)cc1 [Example 31.163], the EC50 was 108 nM.
Compound CC1CCCCN1C(=O)C1CN(c2c3c(nc4ccnn24)CCNCC3)C1 (stereo not shown) [Example 31.62] has an EC50 of 925 nM.
In the case of Cc1cc(Cl)ccc1OC1CN(c2c3c(nc4ccnn24)CCNCC3)C1 [Example 35.20], the EC50 is reported as 326 nM.
Work on CC1CN(C(=O)C2CN(c3c4c(nc5ccnn35)CCNCC4)C2)CC(C)N1 (stereo not shown) [Example 37.13] yielded an EC50 of 1 nM.
With CCCCNC(=O)C1CN(c2c3c(nc4ccnn24)CCNCC3)C1 [Example 37.72] the EC50 was 91 nM.
FC(F)(F)c1cnc(OC2CN(c3c4c(nc5ccnn35)CCNCC4)C2)c(Cl)c1 [Example 20.7] gave an EC50 of 424 nM.
CCc1cnn2c(N3CC(C(=O)N(C)C)C3)c3c(nc12)CCNCC3 [Example 26, 1-(3-Ethyl-6,7,8,9-tetrahydro-5H-1,4,7,10a-tetraaza-cyclohepta[f]inden-10-yl)-azetidine-3-carboxylic acid dimethylamide] gave an EC50 of 10 nM.
Cc1coc(C2CN(c3c4c(nc5ccnn35)CCNCC4)C2)n1 [Example 13, 10-[3-(4-Methyl-oxazol-2-yl)-azetidin-1-yl]-6,7,8,9-tetrahydro-5H-1,4,7,10a-tetraaza-cyclohepta[f]indene] gave an EC50 of 628 nM.
Compound O=C(C1CN(c2c3c(nc4ccnn24)CCNCC3)C1)N1CCC(Cc2ccccc2)CC1 [Example 31.126] has an EC50 of 47 nM.
CNC1CCN(C(=O)C2CN(c3c4c(nc5ccnn35)CCNCC4)C2)CC1 [Example 37.14] showed an EC50 of 1 nM.
C[C@@H](NC(=O)C1CN(c2c3c(nc4ccnn24)CCNCC3)C1)C1CCCCC1 [Example 31.188] gave an EC50 of 101 nM.
In the case of CN1CCc2nc3ccnn3c(N3CC(C(=O)NC4CC5CCC(C4)N5C)C3)c2CC1 (stereo not shown) [Example 36.10], the EC50 is reported as 374 nM.
For O=C(C1CN(c2c3c(nc4ccnn24)CCNCC3)C1)N1CCCC1c1nccs1 (stereo not shown) [Example 31.52], the EC50 was 199 nM.
Work on CC1CCN(C(=O)C2CN(c3c4c(nc5ccnn35)CCNCC4)C2)CC1 [Example 31.228] yielded an EC50 of 42 nM.
CC1CNCCc2c1nc1c(Br)cnn1c2N1CCC1 (stereo not shown) [Example 4, 10-Azetidin-1-yl-3-bromo-5-methyl-6,7,8,9-tetrahydro-5H-1,4,7,10a-tetraaza-cyclohepta[f]indene] gave an EC50 of 679 nM.
In the case of O=C1CCCN1c1ccc(OC2CN(c3c4c(nc5ccnn35)CCNCC4)C2)c(Cl)c1 [Example 35.26], the EC50 is reported as 115 nM.
c1ccc(CCc2cnn3c(N4CCC4)c4c(nc23)CCNCC4)nc1 [Example 6, 10-Azetidin-1-yl-3-(2-pyridin-2-yl-ethyl)-6,7,8,9-tetrahydro-5H-1,4,7,10a-tetraaza-cyclohepta[f]indene] was tested, and the EC50 was 156 nM.
For CN1CCc2nc3ccnn3c(N3CC(C(=O)NCCCN4CC[C@@H](F)C4)C3)c2CC1 [Example 36.32], the EC50 was 288 nM.
Work on COc1ccc2c(c1)CCN(c1c3c(nc4ccnn14)CCNCC3)C2 [Example 1.23] yielded an EC50 of 522 nM.
COc1ccc(N(C)C(=O)C2CN(c3c4c(nc5ccnn35)CCNCC4)C2)cc1 [Example 31.31] was tested, and the EC50 was 2150 nM.
Work on CCCn1c(C2CN(c3c4c(nc5ccnn35)CCNCC4)C2)nc2ccccc21 [Example 34.35] yielded an EC50 of 472 nM.
Cc1cnn2c(N3CC(C(=O)N4CCC5(CCCCC5)CC4)C3)c3c(nc12)CCNCC3 [Example 31.235] showed an EC50 of 84 nM.
COCCN(C)C(=O)C1CN(c2c3c(nc4ccnn24)CCNCC3)C1 [Example 31.3] gave an EC50 of 885 nM.
Fc1ccccc1OCC1CN(c2c3c(nc4ccnn24)CCNCC3)C1 [Example 15.2] gave an EC50 of 3 nM.
O=C(C1CN(c2c3c(nc4ccnn24)CCNCC3)C1)N1CCCC(F)(F)C1 [Example 31.201] was tested, and the EC50 was 24 nM.
Compound O=C(C1CN(c2c3c(nc4ccnn24)CCNCC3)C1)N1CCCC(c2ccccc2)C1 (stereo not shown) [Example 31.108] has an EC50 of 113 nM.
Compound O=C(C1CN(c2c3c(nc4ccnn24)CCNCC3)C1)N1CCN(C2CC2)CC1 [Example 37.32] has an EC50 of 22 nM.
With CC(=O)N1CCN(C(=O)C2CN(c3c4c(nc5ccnn35)CCN(C)CC4)C2)CC1 [Example 36.52] the EC50 was 181 nM.
CN(Cc1ccc(Cl)c(Cl)c1)C(=O)C1CCCN(c2c3c(nc4ccnn24)CCNCC3)C1 (stereo not shown) [Example 1.57] showed an EC50 of 2960 nM.
In the case of O=C(C1CN(c2c3c(nc4ccnn24)CCNCC3)C1)N1CCC1 [Example 31.7], the EC50 is reported as 3300 nM.
Compound COc1ccc(C(O)C2CN(c3c4c(nc5ccnn35)CCNCC4)C2)cc1 (stereo not shown) [Example 19, (4-Methoxy-phenyl)-[1-(6,7,8,9-tetrahydro-5H-1,4,7,10a-tetraaza-cyclohepta[f]inden-10-yl)-azetidin-3-yl]-methanol] has an EC50 of 139 nM.
Compound CN1CCc2nc3ccnn3c(N3CC(C(=O)NCCC4CCCC4)C3)c2CC1 [Example 36.46] has an EC50 of 143 nM.
Work on C[C@H](c1ccccc1)N(C)C(=O)C1CN(c2c3c(nc4ccnn24)CCNCC3)C1 [Example 31.90] yielded an EC50 of 465 nM.
O=C(C1CN(c2c3c(nc4ccnn24)CCNCC3)C1)N1CCc2ccccc21 [Example 31.143] was tested, and the EC50 was 49 nM.
With O=C(C1CN(c2c3c(nc4ccnn24)CCNCC3)C1)N1CCOC(c2ccccc2)C1 (stereo not shown) [Example 31.8] the EC50 was 94 nM.
CN1CCc2nc3ccnn3c(N3CC(C(=O)NC4CC(C)(C)NC(C)(C)C4)C3)c2CC1 [Example 36.9] showed an EC50 of 379 nM.
c1ccc(OC2CN(c3c4c(nc5ccnn35)CCNCC4)C2)nc1 [Example 20.6] showed an EC50 of 38 nM.
CN1CCc2nc3ccnn3c(N3CC(C(=O)N4CCN(C5CC5)CC4)C3)c2CC1 [Example 36.24] showed an EC50 of 228 nM.
CN(C(=O)C1CCCN(c2c3c(nc4ccnn24)CCNCC3)C1)c1ccccc1 (stereo not shown) [Example 1.60] showed an EC50 of 1590 nM.
With CN(C)C1CN(C(=O)C2CN(c3c4c(nc5ccnn35)CCNCC4)C2)C1 [Example 37.33] the EC50 was 7 nM.
COc1ccccc1C1CCN(c2c3c(nc4ccnn24)CCNCC3)C1 (stereo not shown) [Example 1.21] gave an EC50 of 1150 nM.
In the case of c1ccc(C2CCN2c2c3c(nc4ccnn24)CCNCC3)cc1 (stereo not shown) [Example 21, 10-(2-Phenyl-azetidin-1-yl)-6,7,8,9-tetrahydro-5H-1,4,7,10a-tetraaza-cyclohepta[f]indene], the EC50 is reported as 5200 nM.
